1 compound from publication PMC4540187 (Cell Death & Disease, 2014) can be followed below.

Holding throughout (experiment): […]-ATP peptide kinase assay with TLC, purified kinase
Common to all, as to format: biochemical

One test concerns the target T1, Itk (Homo sapiens, UniProt Q08881).
T1 sequence (Q08881 1-620): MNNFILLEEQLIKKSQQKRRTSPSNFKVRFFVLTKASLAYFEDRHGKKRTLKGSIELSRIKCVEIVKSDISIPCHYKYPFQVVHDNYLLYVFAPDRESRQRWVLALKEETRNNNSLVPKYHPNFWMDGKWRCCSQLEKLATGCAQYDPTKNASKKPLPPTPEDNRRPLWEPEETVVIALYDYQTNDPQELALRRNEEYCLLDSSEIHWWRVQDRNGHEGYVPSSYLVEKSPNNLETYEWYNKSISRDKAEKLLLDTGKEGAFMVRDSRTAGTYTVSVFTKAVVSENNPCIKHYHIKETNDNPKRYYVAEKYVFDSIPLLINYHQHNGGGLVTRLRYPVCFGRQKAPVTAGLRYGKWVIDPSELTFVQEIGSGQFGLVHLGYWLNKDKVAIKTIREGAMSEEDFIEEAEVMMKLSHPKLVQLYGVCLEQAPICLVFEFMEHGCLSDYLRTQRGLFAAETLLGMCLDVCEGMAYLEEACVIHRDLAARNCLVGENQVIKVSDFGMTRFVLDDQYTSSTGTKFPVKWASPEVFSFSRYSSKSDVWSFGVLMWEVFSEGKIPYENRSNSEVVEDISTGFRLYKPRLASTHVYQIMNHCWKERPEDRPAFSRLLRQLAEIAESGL

The target in another test is Btk (Homo sapiens, UniProt Q06187).
Chain of Btk (Q06187 2-659): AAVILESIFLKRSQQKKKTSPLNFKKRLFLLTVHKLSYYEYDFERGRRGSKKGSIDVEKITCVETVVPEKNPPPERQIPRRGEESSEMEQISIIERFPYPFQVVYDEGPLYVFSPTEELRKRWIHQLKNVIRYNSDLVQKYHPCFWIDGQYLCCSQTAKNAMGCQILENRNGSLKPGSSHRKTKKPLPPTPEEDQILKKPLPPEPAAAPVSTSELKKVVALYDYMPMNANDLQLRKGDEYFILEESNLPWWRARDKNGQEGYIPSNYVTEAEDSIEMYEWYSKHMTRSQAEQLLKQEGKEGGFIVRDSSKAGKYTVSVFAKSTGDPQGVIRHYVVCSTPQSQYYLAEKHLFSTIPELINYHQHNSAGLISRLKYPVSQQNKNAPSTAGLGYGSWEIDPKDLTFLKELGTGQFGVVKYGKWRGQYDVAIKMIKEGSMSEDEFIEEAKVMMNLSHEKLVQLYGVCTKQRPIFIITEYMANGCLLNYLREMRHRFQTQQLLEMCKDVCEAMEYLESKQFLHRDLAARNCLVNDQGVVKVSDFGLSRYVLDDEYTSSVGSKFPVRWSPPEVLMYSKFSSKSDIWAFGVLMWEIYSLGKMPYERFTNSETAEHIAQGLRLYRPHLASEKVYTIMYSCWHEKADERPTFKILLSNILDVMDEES
A further test deals with Src (Homo sapiens, UniProt P12931).
Chain of Src (P12931 2-536): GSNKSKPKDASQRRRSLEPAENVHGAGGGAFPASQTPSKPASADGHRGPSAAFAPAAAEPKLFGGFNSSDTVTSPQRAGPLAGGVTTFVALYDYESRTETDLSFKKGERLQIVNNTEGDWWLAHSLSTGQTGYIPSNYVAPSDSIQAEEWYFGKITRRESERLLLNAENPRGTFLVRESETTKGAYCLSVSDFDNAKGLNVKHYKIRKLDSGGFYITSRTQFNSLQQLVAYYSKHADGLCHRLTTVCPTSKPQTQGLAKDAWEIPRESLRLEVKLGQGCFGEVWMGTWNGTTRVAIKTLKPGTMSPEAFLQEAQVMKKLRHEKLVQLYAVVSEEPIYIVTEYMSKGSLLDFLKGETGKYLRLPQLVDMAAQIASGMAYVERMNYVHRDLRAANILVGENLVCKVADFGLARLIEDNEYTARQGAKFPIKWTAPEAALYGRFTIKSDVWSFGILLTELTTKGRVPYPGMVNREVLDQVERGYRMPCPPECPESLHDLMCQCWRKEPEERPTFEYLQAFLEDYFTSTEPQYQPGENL

For the compound `CC(C)Cc1nc2cc3c(cc2[nH]c1=O)nc(NC(=O)c1ccc(-c2ccncc2)cc1)n3CCCN1CCCCC1` [CTN06, N-(7-isobutyl-6-oxo-1-(3-(piperidin-1-yl)propyl)-5,6-dihydro-1H-imidazo[4,5-g]quinoxalin-2-yl)-4-(pyridin-4-yl)benzamide], the “33P-ATP peptide kinase assay with TLC, purified kinase” value at Itk is “CTN06 appears to have the strongest activity toward Btk and Etk, followed by Itk, another member in the same family”. In addition, the IC50 was roughly 50 nM on Btk and roughly 5000 nM at Src.

The term IC50 denotes the concentration that inhibits the measured activity by half. Lower therefore signals greater potency in that assay.
